Results: ChEMBL document CHEMBL1151606, “Relationship of structure of bridged (2,6-dimethyl-4-pyridinyl)quinolones to mammalian topoisomerase II inhibition” (Bioorg Med Chem Lett, 1993)

Assays:
DNA topoisomerase II = DNA topoisomerase II (Homo sapiens, UniProt P11388+Q02880); assay: Tested for inhibitory activity against Topoisomerase II isolated from HeLa cells by using SDS-K+ precipitation method; type: cell-based
Mus musculus [1] = assay: Tested for the increased life span (ILS) in murine leukemia model (in which P388 administered intraperitoneally), at a concentration of 1014 mg/kg; type: functional; conditions: P388, ip, route intraperitoneal
Mus musculus [2] = assay: Tested for the increased life span (ILS) in murine leukemia model (in which P388 administered intraperitoneally), at a concentration of 180 mg/kg; type: functional; conditions: P388, ip, route intraperitoneal

| SMILES | EC50 (DNA topoisomerase II) | ILS at 1014 mg/kg (Mus musculus [1]) | ILS at 180 mg/kg (Mus musculus [2]) |
| --- | --- | --- | --- |
| Cc1cc(-c2c(F)cc3c(=O)c(C(=O)O)cn4c3c2OCC[C@@H]4C)cc(C)n1 | 150 µM |  |  |
| C[C@H]1COc2c(-c3ccncc3)c(F)cc3c(=O)c(C(=O)O)cn1c23 | 57 µM |  |  |
| Cc1cc(-c2c(F)cc3c(=O)c(C(=O)O)cn4c3c2OC[C@@H]4C)cc(C)n1 | 31 µM |  |  |
| Cc1cc(-c2c(F)cc3c(=O)c(C(=O)O)cn4c3c2SC[C@@H]4C)cc(C)n1 | 9.4 µM | 90% |  |
| Cc1cc(-c2c(F)cc3c(=O)c(C(=O)O)cn4c3c2NC[C@@H]4C)cc(C)n1 | 730 µM |  |  |
| Cc1cc(-c2c(F)cc3c(=O)c(C(=O)O)cn4c3c2OCC42CC2)cc(C)n1 | > 130 µM |  |  |
| Cc1cc(-c2c(F)cc3c(=O)c(C(=O)O)cn4c3c2OCC4(C)C)cc(C)n1 | 510 µM |  |  |
| Cc1cc(-c2c(F)c(F)c3c(=O)c(C(=O)O)cn4c3c2OC[C@@H]4C)cc(C)n1 | 50 µM |  |  |
| CCn1cc(C(=O)O)c(=O)c2cc(F)c(-c3cc(C)nc(C)c3)cc21 | > 570 µM |  |  |
| C[C@H]1COc2c(-c3ccc4cnccc4c3)c(F)cc3c(=O)c(C(=O)O)cn1c23 | 58 µM |  |  |
| Cc1cc(-c2c(F)cc3c(=O)c(C(=O)O)cn4c3c2[S+]([O-])C[C@@H]4C)cc(C)n1 (stereo partly drawn) | 62 µM |  |  |
| CC[C@H]1COc2c(-c3cc(C)nc(C)c3)c(F)cc3c(=O)c(C(=O)O)cn1c23 | 420 µM |  |  |
| Cc1cc(-c2c(F)cc3c(=O)c(C(=O)O)cn4c3c2SC[C@H]4C)cc(C)n1 | > 260 µM |  |  |
| Cc1cc(-c2ccc3c(=O)c(C(=O)O)cn4c3c2OC[C@@H]4C)cc(C)n1 | > 290 µM |  |  |
| Cc1cc(-c2c(F)cc3c(=O)c(C(=O)O)cn4c3c2OC[C@H]4C)cc(C)n1 | > 540 µM |  |  |
| Cc1cc(-c2c(F)cc3c(=O)c(C(=O)O)cn4c3c2OCC4)cc(C)n1.Cl | > 560 µM |  |  |
| COc1cc([C@@H]2c3cc4c(cc3C(O[C@@H]3O[C@@H]5CO[C@@H](C)O[C@H]5[C@H](O)[C@H]3O)C3COC(=O)[C@@H]32)OCO4)cc(OC)c1O (single isomer, unassigned) [ETOPOSIDE] |  |  | 220% |
